Data published in PubChem BioAssay (NCI).
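Five concentrations, 48 hours, 96-well plates. GI50 = concentration required for 50% inhibition of growth. TGI is the concentration that stops growth completely.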

Tests used:
Experiment in all cases: NCI tumour cell line growth inhibition, 48 h
LOX IMVI melanoma = test system: LOX IMVI melanoma
SNB-78 CNS = test system: SNB-78 CNS
SNB-19 CNS = test system: SNB-19 CNS
SK-OV-3 ovarian = test system: SK-OV-3 ovarian
RPMI-8226 leukemia = test system: RPMI-8226 leukemia
TK-10 renal = test system: TK-10 renal
DLD-1 colon = test system: DLD-1 colon
M14 melanoma = test system: M14 melanoma
BT-549 breast = test system: BT-549 breast
DU-145 prostate = test system: DU-145 prostate

Row | SMILES | TGI (LOX IMVI melanoma) [µM] | TGI (SNB-78 CNS) [µM] | TGI (SNB-19 CNS) [µM] | TGI (SK-OV-3 ovarian) [µM] | TGI (RPMI-8226 leukemia) [µM] | TGI (TK-10 renal) [µM] | TGI (DLD-1 colon) [µM] | TGI (M14 melanoma) [µM] | GI50 (LOX IMVI melanoma) [µM] | GI50 (SNB-78 CNS) [µM] | GI50 (SNB-19 CNS) [µM] | GI50 (M14 melanoma) [µM] | GI50 (SK-OV-3 ovarian) [µM] | GI50 (RPMI-8226 leukemia) [µM] | GI50 (TK-10 renal) [µM] | GI50 (DLD-1 colon) [µM] | GI50 (BT-549 breast) [µM] | TGI (BT-549 breast) [µM] | GI50 (DU-145 prostate) [µM] | TGI (DU-145 prostate) [µM]
1 | CN(C)CC/C(=N\Nc1ccc(Cl)c(Cl)c1)c1ccccc1 | 3.06 | 5.65 | 13.8 | 14.1 | 6.73 | 3.68 | 10 | – | – | – | – | – | – | – | – | – | – | – | – | –
2 | COc1cc(/C=C/c2ccc(OC(C)=O)cc2)cc(OC)c1OC | 94.1 | > 100 | > 100 | – | 68.6 | > 100 | > 100 | > 100 | – | – | – | – | – | – | – | – | – | – | – | –
3 | COc1ccc2nc(NC(=O)C(=O)C(C(=O)c3ccccc3-c3ccccc3)C3OC(=O)c4ccccc43)sc2c1 (stereo not drawn) | 35.4 | > 100 | – | 88 | 51.9 | 48.9 | 40.9 | 41.5 | – | – | – | – | – | – | – | – | – | – | – | –
4 | NC(=S)NNC(=O)CCC(=O)Nc1ccc(Cl)cc1Cl | > 100 | > 100 | > 100 | > 100 | > 100 | > 100 | > 100 | > 100 | – | – | – | – | – | – | – | – | – | – | – | –
5 | Cc1ccccc1-c1c(N)nc(N)nc1C(=O)Nc1nccs1 | > 100 | > 100 | > 100 | > 100 | > 100 | > 100 | > 100 | > 100 | – | – | – | – | – | – | – | – | – | – | – | –
6 | CCC[CH2][Ge]([CH2]CCC)([CH2]CCC)[O]C(=O)C(O)c1ccccc1 (stereo not drawn) | 13.6 | 38.8 | > 63.7 | 35.6 | 42.2 | > 100 | 21.9 | 12 | 1.85 | 3.04 | 18.5 | 2.51 | 9.27 | 0.641 | 18 | 1.99 | – | – | – | –
7 | CCc1ccc(Nc2cc(=O)[nH]c(=S)n2C)cc1 | > 100 | > 100 | > 100 | > 100 | > 100 | > 100 | > 100 | > 100 | – | – | – | – | – | – | – | – | – | – | – | –
8 | CCOC(=O)N1N=NC2C3OC(C[C@@]3(C#N)OC(C)=O)[C@H]21 (stereo partly drawn) | > 100 | > 100 | > 100 | > 100 | > 100 | > 100 | > 100 | > 100 | – | – | – | – | – | – | – | – | – | – | – | –
9 | CCCCCCCCCC1C(C)c2c([nH]c3ccccc23)C2C(=O)N(c3ccccc3)C(=O)C21 (stereo not drawn) | – | > 100 | – | 33.5 | – | 73.5 | 30.2 | 28.7 | – | – | – | – | – | – | – | – | – | – | – | –
10 | CCC[CH2][Sn]([CH2]CCC)([O]C(=O)c1cc(OC)c(OC)cc1OC)[O]C(=O)c1cc(OC)c(OC)cc1OC | 3.34 | 2.41 | 1.82 | 5.51 | 2.96 | 2.84 | 2.92 | 2.99 | 1.04 | 0.68 | 0.626 | 1.51 | 2.14 | 0.499 | 1.5 | 1.51 | – | – | – | –
11 | Cc1ccc(NC(=O)CC/C(CC(=O)c2ccc(F)cc2)=N\NC(=O)C(=O)NN)cc1C | > 100 | > 100 | > 100 | > 100 | – | > 100 | > 100 | > 100 | – | – | – | – | – | – | – | – | – | – | – | –
12 | COc1cc(C(=O)C/C(CCC(=O)Nc2ccc(Cl)cc2Cl)=N/NC(=O)C(N)=O)ccc1O | – | > 100 | > 100 | > 100 | > 100 | > 100 | > 100 | > 100 | – | – | – | – | – | – | – | – | – | – | – | –
13 | O=C(OCC1OC(OC(=O)c2cc(O)c(O)c(OC(=O)c3cc(O)c(O)c(O)c3)c2)C(OC(=O)c2cc(O)c(O)c(OC(=O)c3cc(O)c(O)c(O)c3)c2)C(OC(=O)c2cc(O)c(O)c(OC(=O)c3cc(O)c(O)c(O)c3)c2)C1OC(=O)c1cc(O)c(O)c(OC(=O)c2cc(O)c(O)c(O)c2)c1)c1cc(O)c(O)c(OC(=O)c2cc(O)c(O)c(O)c2)c1 (stereo not drawn) | 25.4 | – | > 50 | > 50 | > 50 | 28.2 | – | > 50 | 10 | – | 24.7 | 25.3 | 17.3 | 20.8 | 7.46 | – | 12.1 | 35.9 | 14.8 | > 50
14 | Cc1nc(-c2nc(C)c(C(=O)NN(C)C)s2)sc1C(=O)NN(C)C | 48.9 | > 100 | > 100 | > 100 | 91.2 | > 100 | > 100 | > 100 | – | – | – | – | – | – | – | – | – | – | – | –
15 | CC[C@H](C)[C@H](NC(=O)Nc1ccccc1)C(=O)N(C)[C@H](C[C@@H](OC(C)=O)c1nc(C(=O)N[C@@H](Cc2ccccc2)C[C@H](C)C(=O)OC)cs1)C(C)C | > 100 | – | > 100 | > 100 | > 100 | > 100 | – | 5.84 | 4.76 | – | 5.05 | 2.19 | 5.13 | 2.03 | 9.56 | – | 3.09 | 41.2 | 3.94 | > 100
16 | C[C@H]1[C@H](C)CC[C@]2(C(=O)O)CC[C@]3(C)C(=CC[C@@H]4[C@@]5(C)CC[C@H](OC(=O)/C=C/c6ccc(O)cc6)C(C)(C)[C@@H]5CC[C@]43C)[C@H]12 | 16.6 | – | 22.9 | 20.3 | 48.5 | 17.5 | – | 12.5 | 4.73 | – | 2.44 | 4.13 | 5.25 | 5.49 | 3.01 | – | 5.11 | 13.4 | 2.32 | 13
17 | CC1=C(C(=O)CC(=O)C(=O)Nc2ccccc2)Sc2ccccc2N1 | > 100 | > 100 | > 100 | > 100 | > 100 | – | > 100 | > 100 | – | – | – | – | – | – | – | – | – | – | – | –
18 | Nc1nc(N)c2c(ccc3nccc32)[nH]1 | 16.6 | – | > 100 | > 81.5 | 21.7 | > 86.8 | – | > 79.8 | 0.839 | – | 7.98 | 1.92 | 18.4 | 3.73 | 17.4 | – | 3.06 | 24.1 | 8.61 | 57.4
19 | Nc1ccc2c(c1)CC1c3ccccc3C(C2)c2ccccc21 | > 100 | > 100 | > 100 | > 100 | > 100 | > 100 | > 100 | > 100 | – | – | – | – | – | – | – | – | – | – | – | –
20 | CCOC(=O)C(Cc1ccccc1)NC(=O)OC(C)(C)C (stereo not drawn) | > 100 | > 100 | > 100 | > 100 | – | > 100 | > 100 | > 100 | – | – | – | – | – | – | – | – | – | – | – | –
